Data taken from ChEMBL document CHEMBL5608259 (J Med Chem, 2024).
Values belong to the molecule of their own block, whether it stands above or below them. Calls of active or inactive are those of the source. The calls are words filed in the database; no cut-off is given here.

Columns and labels:
[1] = target: T1, Protein arginine N-methyltransferase 7 (Homo sapiens, UniProt Q9NVM4); assay: Inhibition of PRMT7 (unknown origin)
T1 sequence (Q9NVM4 whole entry): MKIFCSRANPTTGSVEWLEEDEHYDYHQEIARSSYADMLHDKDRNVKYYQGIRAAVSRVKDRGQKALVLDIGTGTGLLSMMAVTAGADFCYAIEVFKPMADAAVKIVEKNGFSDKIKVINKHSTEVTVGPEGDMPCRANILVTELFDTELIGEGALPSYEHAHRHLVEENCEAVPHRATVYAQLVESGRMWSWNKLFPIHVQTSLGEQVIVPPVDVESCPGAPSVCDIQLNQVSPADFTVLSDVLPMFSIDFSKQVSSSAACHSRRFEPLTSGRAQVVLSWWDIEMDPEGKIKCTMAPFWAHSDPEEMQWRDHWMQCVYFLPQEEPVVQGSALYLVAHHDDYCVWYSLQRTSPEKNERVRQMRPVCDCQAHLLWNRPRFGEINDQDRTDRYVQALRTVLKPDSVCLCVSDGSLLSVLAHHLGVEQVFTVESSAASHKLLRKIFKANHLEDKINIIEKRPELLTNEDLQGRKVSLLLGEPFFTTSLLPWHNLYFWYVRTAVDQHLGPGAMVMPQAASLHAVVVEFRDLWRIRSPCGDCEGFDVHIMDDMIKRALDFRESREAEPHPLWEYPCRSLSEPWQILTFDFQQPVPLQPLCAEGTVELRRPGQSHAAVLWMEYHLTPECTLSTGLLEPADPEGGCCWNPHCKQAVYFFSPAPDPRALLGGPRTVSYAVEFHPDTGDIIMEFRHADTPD

[2] = target: T2, Protein arginine N-methyltransferase 6 (Homo sapiens, UniProt Q96LA8); assay: Inhibition of PRMT6 (unknown origin)
T2 sequence (Q96LA8 whole entry): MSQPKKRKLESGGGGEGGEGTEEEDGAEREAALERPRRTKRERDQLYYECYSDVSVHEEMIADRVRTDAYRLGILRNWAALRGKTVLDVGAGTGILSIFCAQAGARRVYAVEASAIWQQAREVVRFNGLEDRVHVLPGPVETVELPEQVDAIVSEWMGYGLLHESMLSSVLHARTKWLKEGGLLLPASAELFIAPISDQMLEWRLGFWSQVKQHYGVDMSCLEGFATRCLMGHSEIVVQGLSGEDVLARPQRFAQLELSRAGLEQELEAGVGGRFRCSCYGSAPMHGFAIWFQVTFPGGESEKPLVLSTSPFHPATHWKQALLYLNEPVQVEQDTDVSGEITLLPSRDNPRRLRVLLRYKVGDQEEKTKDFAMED

[3] = target: T3, Protein arginine N-methyltransferase 8 (Homo sapiens, UniProt Q9NR22); assay: Inhibition of PRMT8 (unknown origin)
T3 sequence (Q9NR22 whole entry): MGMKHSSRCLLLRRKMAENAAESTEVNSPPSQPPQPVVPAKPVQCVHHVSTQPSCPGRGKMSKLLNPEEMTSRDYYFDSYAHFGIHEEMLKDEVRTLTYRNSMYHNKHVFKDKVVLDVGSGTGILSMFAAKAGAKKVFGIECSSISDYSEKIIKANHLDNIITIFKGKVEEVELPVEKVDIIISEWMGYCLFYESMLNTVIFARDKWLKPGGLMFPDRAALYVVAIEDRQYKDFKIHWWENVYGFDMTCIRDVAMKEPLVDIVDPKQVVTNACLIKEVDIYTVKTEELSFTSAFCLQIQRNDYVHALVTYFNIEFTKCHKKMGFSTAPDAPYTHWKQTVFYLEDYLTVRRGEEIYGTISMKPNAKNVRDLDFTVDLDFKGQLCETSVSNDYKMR

[4] = target: T4, Protein arginine N-methyltransferase 3 (Homo sapiens, UniProt O60678); assay: Inhibition of PRMT3 (unknown origin)
T4 sequence (O60678 whole entry): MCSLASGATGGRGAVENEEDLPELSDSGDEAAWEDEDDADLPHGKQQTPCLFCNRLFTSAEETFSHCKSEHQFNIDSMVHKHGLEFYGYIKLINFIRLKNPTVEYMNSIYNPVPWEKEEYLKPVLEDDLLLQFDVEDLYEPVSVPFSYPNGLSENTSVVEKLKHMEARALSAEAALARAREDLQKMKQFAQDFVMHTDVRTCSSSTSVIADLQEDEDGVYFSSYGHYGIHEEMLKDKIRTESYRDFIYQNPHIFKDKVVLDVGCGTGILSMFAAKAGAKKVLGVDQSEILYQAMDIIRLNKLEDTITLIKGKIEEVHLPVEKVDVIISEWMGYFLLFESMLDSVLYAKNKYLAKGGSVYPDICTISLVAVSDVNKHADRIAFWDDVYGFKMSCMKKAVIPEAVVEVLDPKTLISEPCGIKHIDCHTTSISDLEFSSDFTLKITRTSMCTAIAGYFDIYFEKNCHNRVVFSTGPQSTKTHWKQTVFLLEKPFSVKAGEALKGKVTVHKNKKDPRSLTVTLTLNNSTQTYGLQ

[5] = target: T5, Histone-arginine methyltransferase CARM1 (Homo sapiens, UniProt Q86X55); assay: Inhibition of PRMT4 (unknown origin)
T5 sequence (Q86X55 whole entry): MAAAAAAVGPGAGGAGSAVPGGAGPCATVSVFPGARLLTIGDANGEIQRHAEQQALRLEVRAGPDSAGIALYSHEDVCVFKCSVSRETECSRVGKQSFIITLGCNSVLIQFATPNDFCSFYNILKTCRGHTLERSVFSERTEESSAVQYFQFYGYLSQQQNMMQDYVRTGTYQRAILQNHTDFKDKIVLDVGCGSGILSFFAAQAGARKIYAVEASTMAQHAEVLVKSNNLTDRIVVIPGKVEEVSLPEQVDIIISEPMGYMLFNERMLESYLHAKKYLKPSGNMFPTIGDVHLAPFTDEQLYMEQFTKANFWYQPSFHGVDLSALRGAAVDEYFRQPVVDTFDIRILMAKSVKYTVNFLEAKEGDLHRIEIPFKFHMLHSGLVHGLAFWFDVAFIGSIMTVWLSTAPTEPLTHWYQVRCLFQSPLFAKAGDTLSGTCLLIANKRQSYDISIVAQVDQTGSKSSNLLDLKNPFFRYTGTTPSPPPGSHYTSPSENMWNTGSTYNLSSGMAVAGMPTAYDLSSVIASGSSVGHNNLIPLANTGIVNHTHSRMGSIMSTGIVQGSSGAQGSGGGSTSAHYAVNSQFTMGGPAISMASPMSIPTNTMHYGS

[6] = target: T6, Protein arginine N-methyltransferase 1 (Homo sapiens, UniProt Q99873); assay: Inhibition of PRMT1 (unknown origin)
T6 sequence (Q99873 whole entry): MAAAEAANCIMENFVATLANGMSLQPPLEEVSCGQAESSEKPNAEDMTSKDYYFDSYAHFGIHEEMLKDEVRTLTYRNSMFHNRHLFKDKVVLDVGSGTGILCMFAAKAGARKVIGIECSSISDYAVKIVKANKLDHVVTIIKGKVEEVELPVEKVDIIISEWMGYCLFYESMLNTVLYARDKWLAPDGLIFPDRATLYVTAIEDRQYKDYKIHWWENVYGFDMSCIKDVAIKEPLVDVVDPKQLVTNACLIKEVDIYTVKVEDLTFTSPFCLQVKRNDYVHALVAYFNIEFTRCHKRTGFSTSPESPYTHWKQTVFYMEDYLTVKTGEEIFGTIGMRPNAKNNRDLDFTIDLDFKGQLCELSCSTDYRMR

[7] = target: T3, Protein arginine N-methyltransferase 8; assay: Inhibition of PRMT8 (unknown origin) incubated for 1 hr in presence of 3H-SAM by topcount plate reader analysis
[8] = target: T1, Protein arginine N-methyltransferase 7; assay: Inhibition of PRMT7 (unknown origin) incubated for 1 hr in presence of 3H-SAM by topcount plate reader analysis
[9] = target: T5, Histone-arginine methyltransferase CARM1; assay: Inhibition of PRMT4 (unknown origin) incubated for 1 hr in presence of 3H-SAM by topcount plate reader analysis
PRMT5/MEP50 complex = PRMT5/MEP50 complex (Homo sapiens, UniProt O14744); assay: Inhibition of PRMT5/MEP50 (unknown origin) incubated for 1 hr in presence of 3H-SAM by topcount plate reader analysis; type: protein-complex assay
Chain of PRMT5/MEP50 complex (O14744 whole entry): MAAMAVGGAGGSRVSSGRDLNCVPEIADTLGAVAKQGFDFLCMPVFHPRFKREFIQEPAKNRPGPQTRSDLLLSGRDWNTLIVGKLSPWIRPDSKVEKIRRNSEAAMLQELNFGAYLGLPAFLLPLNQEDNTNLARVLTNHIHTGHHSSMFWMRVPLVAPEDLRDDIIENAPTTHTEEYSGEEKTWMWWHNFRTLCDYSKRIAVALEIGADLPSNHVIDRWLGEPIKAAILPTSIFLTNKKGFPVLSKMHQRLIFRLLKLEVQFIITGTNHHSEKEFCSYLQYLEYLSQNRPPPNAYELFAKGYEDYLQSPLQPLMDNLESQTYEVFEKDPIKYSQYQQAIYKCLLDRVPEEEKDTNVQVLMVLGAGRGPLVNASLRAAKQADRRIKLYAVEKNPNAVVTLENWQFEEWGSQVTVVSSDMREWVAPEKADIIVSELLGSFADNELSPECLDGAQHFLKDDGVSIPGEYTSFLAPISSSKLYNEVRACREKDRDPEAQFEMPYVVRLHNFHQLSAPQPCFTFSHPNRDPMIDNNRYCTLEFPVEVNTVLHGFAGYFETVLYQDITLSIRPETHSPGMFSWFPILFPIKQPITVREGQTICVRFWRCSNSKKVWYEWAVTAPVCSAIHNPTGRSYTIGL
Chain of PRMT5/MEP50 complex (Q9BQA1 whole entry, further chain): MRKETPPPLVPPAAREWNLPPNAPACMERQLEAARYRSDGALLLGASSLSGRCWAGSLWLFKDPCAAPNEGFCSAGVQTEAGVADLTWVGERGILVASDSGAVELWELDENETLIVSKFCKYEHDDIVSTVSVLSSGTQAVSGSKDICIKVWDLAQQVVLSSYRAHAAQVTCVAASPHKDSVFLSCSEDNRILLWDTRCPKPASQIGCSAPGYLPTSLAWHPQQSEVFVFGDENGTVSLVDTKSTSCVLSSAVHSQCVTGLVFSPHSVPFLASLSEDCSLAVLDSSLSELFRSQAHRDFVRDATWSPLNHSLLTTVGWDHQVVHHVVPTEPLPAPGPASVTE

[10] = target: T6, Protein arginine N-methyltransferase 1; assay: Inhibition of PRMT1 (unknown origin) incubated for 1 hr in presence of 3H-SAM by topcount plate reader analysis
[11] = target: T2, Protein arginine N-methyltransferase 6; assay: Inhibition of PRMT6 (unknown origin) incubated for 1 hr in presence of 3H-SAM by topcount plate reader analysis
[12] = target: T4, Protein arginine N-methyltransferase 3; assay: Inhibition of PRMT3 (unknown origin) incubated for 1 hr in presence of 3H-SAM by topcount plate reader analysis
[13] = target: Protein arginine N-methyltransferase 5 (Homo sapiens, UniProt O14744); assay: Inhibition of PRMT5 (unknown origin)
Chain of Protein arginine N-methyltransferase 5 (O14744 whole entry): as the sequence (O14744 whole entry) above

[14] = target: T5, Histone-arginine methyltransferase CARM1; assay: Inhibition of PRMT4 in human MDA-MB-231 cells assessed as decrease in BAF155 methylation level incubated for 48 hrs by Western blot analysis; type: cell-based
[15] = target: T5, Histone-arginine methyltransferase CARM1; assay: Inhibition of PRMT4 in human MDA-MB-231 cells assessed as decrease in PABP1 methylation level incubated for 48 hrs by Western blot analysis; type: cell-based
MDA-MB-231 = assay: Inhibition of colony formation in human MDA-MB-231 cells at 10 uM incubated for 2 weeks by crystal violet staining based analysis relative to control; type: functional; settings: MDA-MB-231, 336 h
[16] = Plasma protein binding in mouse at 5 uM measured after 5 hrs by LC-MS/MS analysis; type: ADME, cell-free; settings: read-out: PPB (converted)
4T1.2 [17] = assay: Antitumor activity against mouse 4T1.2 cells xenografted in Balb/c mouse assessed as inhibition of tumor growth at 50 mg/kg, ip measured after 4 weeks by caliper method; type: functional, organism-based
4T1.2 [18] = assay: In vivo inhibition of PRMT4 in mouse 4T1.2 cells xenografted in Balb/c mouse assessed as decrease in BAF155 methylation level at 50 mg/kg, ip by immunoblot analysis; type: functional, organism-based
[19] = target: T7, Histone-arginine methyltransferase CARM1 (Homo sapiens) (UniProt Q86X55); assay: Inhibition of PRMT4 in human MDA-MB-231 cells assessed as inhibition of PABP1 methylation at 10 uM by Western blot analysis; type: cell-based
T7 sequence (whole entry): T5 sequence (Q86X55 whole entry)

[20] = target: T7, Histone-arginine methyltransferase CARM1 (Homo sapiens); assay: Inhibition of PRMT4 in human MDA-MB-231 cells assessed as decrease in BAF155 methylation level incubated for 24 to 48 hrs by Western blot analysis; type: cell-based; settings: dose 0.01-20 µM, time 24-48 hrs
[21] = target: T7, Histone-arginine methyltransferase CARM1 (Homo sapiens); assay: Inhibition of PRMT4 in human MDA-MB-231 cells assessed as inhibition of BAF155 methylation at 10 uM by Western blot analysis; type: cell-based; settings: time 1-48 hrs
[22] = target: T5, Histone-arginine methyltransferase CARM1; assay: Inhibition of PRMT4 in human MDA-MB-231 cells assessed as decrease in PABP1 methylation level incubated for 24 hrs by Western blot analysis; type: cell-based
[23] = Toxicity in Balb/c mouse assessed as effect on body weight at 50 mg/kg, ip measured after 4 weeks; type: organism-based; settings: in vivo, 672 h
[24] = target: T7, Histone-arginine methyltransferase CARM1 (Homo sapiens); assay: Potency index, ratio of IC50 for TP-064 to test compound IC50 for inhibition of PRMT4 in human MDA-MB-231 cells assessed as decrease in BAF155 methylation level incubated for 48 hrs by Western blot analysis; type: cell-based
[25] = target: T7, Histone-arginine methyltransferase CARM1 (Homo sapiens); assay: Inhibition of PRMT4 in human MDA-MB-231 cells assessed as decrease in PABP1 methylation level incubated for 24 to 48 hrs by Western blot analysis; type: cell-based; settings: dose 0.01-20 µM, time 24-48 hrs
[26] = target: T5, Histone-arginine methyltransferase CARM1; assay: Inhibition of PRMT4 in human MDA-MB-231 cells assessed as decrease in BAF155 methylation level incubated for 24 hrs by Western blot analysis; type: cell-based
[27] = Drug recovery in mouse plasma at 5 uM measured after 5 hrs by LC-MS/MS analysis; type: ADME, cell-free; settings: read-out: Drug recovery
[28] = Prodrug release in human MDA-MB-231 cells assessed as (2R,3R,4S,5S)-2-(6-amino-9H-purin-9-yl)-5-(((2-((3-bromobenzyl)amino)ethyl)thio)methyl)tetrahydrofuran-3,4-diol formation at 4.5 uM measured after 30 mins by LC-MS analysis; type: ADME, cell-based; settings: mda-mb-231, 0.5 h
[29] = target: T7, Histone-arginine methyltransferase CARM1 (Homo sapiens); assay: Potency index, ratio of IC50 for EZM2302 to test compound IC50 for inhibition of PRMT4 in human MDA-MB-231 cells assessed as decrease in BAF155 methylation level incubated for 48 hrs by Western blot analysis; type: cell-based

IC50 [1]: > 10000 nM
IC50 [2]: > 10000 nM
IC50 [3]: > 10000 nM
IC50 [4]: > 10000 nM
IC50 [5]: > 10000 nM
IC50 [6]: > 10000 nM
SMILES: Nc1nc2cc(CC[C@H]3C[C@@H](n4ccc5c(N)ncnc54)[C@H](O)[C@@H]3O)ccc2cc1Br [ONAMETOSTAT]

IC50 [7]: 7000 nM
IC50 [8]: < 2.5 nM
IC50 [9]: 140 nM
IC50 (PRMT5/MEP50 complex): 150 nM
IC50 [10]: 1200 nM
IC50 [11]: 1500 nM
IC50 [12]: 1600 nM
SMILES: Nc1ncnc2c1ncn2[C@@H]1O[C@H](CSCCCCNCc2cccc(-c3ccc(Cl)cc3)c2)[C@@H](O)[C@H]1O

IC50 [1]: 555 nM
IC50 [13]: 18.2 nM
IC50 [2]: 30.5 nM
IC50 [3]: 32.1 nM
IC50 [4]: 321 nM
IC50 [5]: 5.05 nM
SMILES: N=C(NCCSC[C@H]1O[C@@H](n2cnc3c(N)ncnc32)[C@H](O)[C@@H]1O)Nc1ccccc1Br

IC50 [14]: 42.3 nM
IC50 [15]: 23.1 nM
fraction unbound at 5 h, 5 µM [16]: 0.004
inhibition [19]: Dose-Dependent Effect
inhibition [20]: Dose-Dependent Effect
inhibition [21]: Dose-Dependent Effect
IC50 [22]: 30.6 nM
Ratio IC50 [24]: 2
inhibition [25]: Dose-Dependent Effect
IC50 [26]: 343 nM
remaining at 5 h, 5 µM [27]: 90.8%
Drug metabolism [28]: Metabolite_Detected
Ratio IC50 [29]: 2
SMILES: CC1=C(C)C(=O)C(C(C)(C)CC(=O)N(CCSC[C@H]2O[C@@H](n3cnc4c(N)ncnc43)[C@H](O)[C@@H]2O)Cc2cccc(Br)c2)=C(C)C1=O
inhibition at 10 µM (MDA-MB-231): 100%
inhibition (4T1.2 [17]): Active
inhibition (4T1.2 [18]): Active
Activity [23]: Non-Toxic
